These results are taken from ChEMBL document CHEMBL4507288 (2021).

Calls of active or inactive are those of the source. The rule behind the calls is not given here. Some results are limits rather than exact numbers.

Experiment [1] has as its target 5-hydroxytryptamine receptor 2C (Homo sapiens, UniProt P28335). Briefly: GPCRScan assay: inhibition of 5-HT2C. More on the design: radioligand conc. used [nm] 1.0 – 2.5, parental cells HEK T.
Experiment [2] deals with Alpha-2C adrenergic receptor (Homo sapiens, UniProt P18825). Briefly: GPCRScan assay: inhibition of Alpha2C. More on the design: radioligand conc. used [nm] 0.5 – 1.0, parental cells stable MDCK.
Experiment [3] deals with Amyloid-beta precursor protein (Homo sapiens, UniProt P05067). As to the kind of experiment: Aβ42 inhibition assay.
The test system of experiment [4] is Tyrosine-protein kinase ABL1 (Homo sapiens), P00519 [M351T]. The conditions noted are these: Compound concentration 1000.0 nM.
The test system of experiment [5] is Tyrosine-protein kinase ABL1 (Homo sapiens), P00519 [Q252H]. The conditions noted are these: Compound concentration 1000.0 nM.
Experiment [6] addresses ALK tyrosine kinase receptor (Homo sapiens) (UniProt Q9UM73). The conditions noted are these: Compound concentration 1000.0 nM.
Experiment [7] concerns the target Ankyrin repeat and protein kinase domain-containing protein 1 (Homo sapiens) (UniProt Q8NFD2). The conditions noted are these: Compound concentration 1000.0 nM.
The target of experiment [8] is Bone morphogenetic protein receptor type-1A (Homo sapiens) (UniProt P36894). To be noted: Compound concentration 1000.0 nM.
The target in experiment [9] is Serine/threonine-protein kinase BRSK2 (Homo sapiens) (UniProt Q8IWQ3). To be noted: Compound concentration 1000.0 nM.
The target in experiment [10] is Cyclin-dependent kinase 19 (Homo sapiens) (UniProt Q9BWU1). The conditions noted are these: Compound concentration 1000.0 nM.
The target of experiment [11] is Serine/threonine-protein kinase Chk1 (Homo sapiens) (UniProt O14757). The conditions noted are these: Compound concentration 1000.0 nM.
The target in experiment [12] is Casein kinase I isoform delta (Homo sapiens) (UniProt P48730). The conditions noted are these: Compound concentration 1000.0 nM.
Experiment [13] relates to Epidermal growth factor receptor (Homo sapiens), P00533 [L861Q]. To be noted: Compound concentration 1000.0 nM.
In experiment [14] the target is Ephrin type-A receptor 8 (Homo sapiens) (UniProt P29322). To be noted: Compound concentration 1000.0 nM.
Experiment [15] concerns the target Receptor tyrosine-protein kinase erbB-3 (Homo sapiens) (UniProt P21860). The conditions noted are these: Compound concentration 1000.0 nM.
For experiment [16], the system named is Receptor-type tyrosine-protein kinase FLT3 (Homo sapiens), P36888 [D835V]. The conditions noted are these: Compound concentration 1000.0 nM.
The target in experiment [17] is Inhibitor of nuclear factor kappa-B kinase subunit epsilon (Homo sapiens) (UniProt Q14164). To be noted: Compound concentration 1000.0 nM.
Experiment [18] concerns Mast/stem cell growth factor receptor Kit (Homo sapiens), P10721 [V559D,V654A]. The conditions noted are these: Compound concentration 1000.0 nM.
Experiment [19] deals with Serine/threonine-protein kinase 10 (Homo sapiens) (UniProt O94804). To be noted: Compound concentration 1000.0 nM.
The target of experiment [20] is MAP kinase-activated protein kinase 2 (Homo sapiens) (UniProt P49137). To be noted: Compound concentration 1000.0 nM.
The target of experiment [21] is MAP/microtubule affinity-regulating kinase 4 (Homo sapiens) (UniProt Q96L34). The conditions noted are these: Compound concentration 1000.0 nM.
For experiment [22], the target named is Serine/threonine-protein kinase MRCK alpha (Homo sapiens) (UniProt Q5VT25). To be noted: Compound concentration 1000.0 nM.
For experiment [23], the target named is Muscle, skeletal receptor tyrosine-protein kinase (Homo sapiens) (UniProt O15146). The conditions noted are these: Compound concentration 1000.0 nM.
For experiment [24], the target named is Serine/threonine-protein kinase Nek1 (Homo sapiens) (UniProt Q96PY6). To be noted: Compound concentration 1000.0 nM.
Experiment [25] deals with Serine/threonine-protein kinase Nek5 (Homo sapiens) (UniProt Q6P3R8). To be noted: Compound concentration 1000.0 nM.
Experiment [26] deals with Serine/threonine-protein kinase Nek7 (Homo sapiens) (UniProt Q8TDX7). To be noted: Compound concentration 1000.0 nM.
Experiment [27] deals with Serine/threonine-protein kinase Nek9 (Homo sapiens) (UniProt Q8TD19). The conditions noted are these: Compound concentration 1000.0 nM.
In experiment [28] the target is Mitogen-activated protein kinase kinase kinase 14 (Homo sapiens) (UniProt Q99558). To be noted: Compound concentration 1000.0 nM.
Experiment [29] concerns the target Platelet-derived growth factor receptor beta (Homo sapiens) (UniProt P09619). The conditions noted are these: Compound concentration 1000.0 nM.
Experiment [30] deals with Cyclin-dependent kinase 14 (Homo sapiens) (UniProt O94921). To be noted: Compound concentration 1000.0 nM.
Experiment [31] concerns the target Phosphorylase b kinase regulatory subunit alpha, liver isoform (Homo sapiens) (UniProt P46019). The conditions noted are these: Compound concentration 1000.0 nM.
Experiment [32] relates to Phosphatidylinositol 4,5-bisphosphate 3-kinase catalytic subunit alpha isoform (Homo sapiens), P42336 [M1043I]. The conditions noted are these: Compound concentration 1000.0 nM.
Experiment [33] addresses Phosphatidylinositol 4,5-bisphosphate 3-kinase catalytic subunit gamma isoform (Homo sapiens) (UniProt P48736). The conditions noted are these: Compound concentration 1000.0 nM.
The target of experiment [34] is Phosphatidylinositol 5-phosphate 4-kinase type-2 beta (Homo sapiens) (UniProt P78356). To be noted: Compound concentration 1000.0 nM.
The target in experiment [35] is Serine/threonine-protein kinase RIO1 (Homo sapiens) (UniProt Q9BRS2). To be noted: Compound concentration 1000.0 nM.
In experiment [36] the target is Serine/threonine-protein kinase RIO3 (Homo sapiens) (UniProt O14730). The conditions noted are these: Compound concentration 1000.0 nM.
Experiment [37] deals with Ribosomal protein S6 kinase alpha-1 (Homo sapiens) (UniProt Q15418). To be noted: Compound concentration 1000.0 nM.
In experiment [38] the target is Serine/threonine-protein kinase TAO3 (Homo sapiens) (UniProt Q9H2K8). To be noted: Compound concentration 1000.0 nM.
Experiment [39] deals with TGF-beta receptor type-2 (Homo sapiens) (UniProt P37173). The conditions noted are these: Compound concentration 1000.0 nM.
Experiment [40] addresses Angiopoietin-1 receptor (Homo sapiens) (UniProt Q02763). To be noted: Compound concentration 1000.0 nM.
Experiment [41] addresses Transient receptor potential cation channel subfamily M member 6 (Homo sapiens) (UniProt Q9BX84). The conditions noted are these: Compound concentration 1000.0 nM.
The target of experiment [42] is Tyrosine-protein kinase TXK (Homo sapiens) (UniProt P42681). The conditions noted are these: Compound concentration 1000.0 nM.
Experiment [43] has as its target Phosphatidylinositol 3-kinase catalytic subunit type 3 (Homo sapiens) (UniProt Q8NEB9). To be noted: Compound concentration 1000.0 nM.
The target of experiment [44] is Serine/threonine-protein kinase VRK2 (Homo sapiens) (UniProt Q86Y07). To be noted: Compound concentration 1000.0 nM.
The target in experiment [45] is Serine/threonine-protein kinase 32B (Homo sapiens) (UniProt Q9NY57). The conditions noted are these: Compound concentration 1000.0 nM.

Sequence of Platelet-derived growth factor receptor beta (Homo sapiens) (P09619 whole entry): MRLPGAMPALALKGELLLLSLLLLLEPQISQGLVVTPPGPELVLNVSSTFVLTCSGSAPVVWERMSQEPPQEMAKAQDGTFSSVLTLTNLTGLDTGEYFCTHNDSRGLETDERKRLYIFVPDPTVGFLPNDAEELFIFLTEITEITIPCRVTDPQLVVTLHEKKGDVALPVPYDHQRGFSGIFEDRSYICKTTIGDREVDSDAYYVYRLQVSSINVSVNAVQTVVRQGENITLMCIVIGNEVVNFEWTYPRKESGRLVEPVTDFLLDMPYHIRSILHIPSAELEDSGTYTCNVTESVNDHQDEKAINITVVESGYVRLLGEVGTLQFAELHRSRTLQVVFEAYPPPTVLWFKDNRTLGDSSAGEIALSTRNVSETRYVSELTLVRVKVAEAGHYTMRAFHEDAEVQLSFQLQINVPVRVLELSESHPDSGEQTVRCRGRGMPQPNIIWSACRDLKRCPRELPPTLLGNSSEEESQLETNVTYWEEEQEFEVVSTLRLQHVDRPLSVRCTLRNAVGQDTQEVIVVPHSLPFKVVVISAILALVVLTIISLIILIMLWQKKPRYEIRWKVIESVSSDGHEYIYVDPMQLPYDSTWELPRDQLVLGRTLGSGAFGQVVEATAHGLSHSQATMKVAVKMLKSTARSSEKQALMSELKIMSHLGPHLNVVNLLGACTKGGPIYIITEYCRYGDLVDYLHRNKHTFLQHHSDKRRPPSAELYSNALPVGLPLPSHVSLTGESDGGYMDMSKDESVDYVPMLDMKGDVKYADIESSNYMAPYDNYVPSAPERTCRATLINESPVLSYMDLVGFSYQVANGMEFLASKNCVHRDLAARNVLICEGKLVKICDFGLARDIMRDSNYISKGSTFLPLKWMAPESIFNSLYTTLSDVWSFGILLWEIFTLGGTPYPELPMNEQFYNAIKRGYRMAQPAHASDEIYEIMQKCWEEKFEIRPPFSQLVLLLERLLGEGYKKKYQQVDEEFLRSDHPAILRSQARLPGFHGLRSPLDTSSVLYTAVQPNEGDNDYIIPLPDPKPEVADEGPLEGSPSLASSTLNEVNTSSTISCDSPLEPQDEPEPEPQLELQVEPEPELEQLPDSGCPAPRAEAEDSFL
Sequence of Mast/stem cell growth factor receptor Kit (Homo sapiens), P10721 [V559D,V654A] (P10721 whole entry V559D/V654A): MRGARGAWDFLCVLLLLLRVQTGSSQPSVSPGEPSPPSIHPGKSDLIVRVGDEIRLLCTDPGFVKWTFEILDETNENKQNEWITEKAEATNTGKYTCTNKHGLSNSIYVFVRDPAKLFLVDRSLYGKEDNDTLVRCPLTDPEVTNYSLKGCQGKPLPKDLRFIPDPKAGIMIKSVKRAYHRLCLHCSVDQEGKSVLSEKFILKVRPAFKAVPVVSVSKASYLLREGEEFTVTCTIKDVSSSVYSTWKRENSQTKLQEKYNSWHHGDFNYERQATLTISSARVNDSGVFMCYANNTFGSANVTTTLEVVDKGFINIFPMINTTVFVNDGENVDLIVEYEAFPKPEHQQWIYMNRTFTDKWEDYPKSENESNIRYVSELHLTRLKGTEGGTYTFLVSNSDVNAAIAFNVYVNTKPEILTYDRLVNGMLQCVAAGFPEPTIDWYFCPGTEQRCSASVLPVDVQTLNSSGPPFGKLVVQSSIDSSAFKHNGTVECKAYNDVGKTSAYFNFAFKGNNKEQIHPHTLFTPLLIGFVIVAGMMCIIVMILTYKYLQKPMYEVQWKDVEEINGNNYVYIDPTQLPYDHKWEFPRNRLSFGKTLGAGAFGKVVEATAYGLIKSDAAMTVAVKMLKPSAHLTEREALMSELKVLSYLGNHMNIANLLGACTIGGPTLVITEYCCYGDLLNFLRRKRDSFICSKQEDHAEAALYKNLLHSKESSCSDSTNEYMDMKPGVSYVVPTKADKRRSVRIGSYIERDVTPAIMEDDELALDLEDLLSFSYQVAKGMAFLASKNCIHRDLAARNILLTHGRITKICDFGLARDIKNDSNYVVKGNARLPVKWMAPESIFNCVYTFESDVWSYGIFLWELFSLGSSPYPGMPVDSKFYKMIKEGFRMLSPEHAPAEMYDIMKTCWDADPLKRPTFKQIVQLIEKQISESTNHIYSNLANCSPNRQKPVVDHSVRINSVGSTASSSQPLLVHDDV
Sequence of Serine/threonine-protein kinase TAO3 (Homo sapiens) (Q9H2K8 whole entry): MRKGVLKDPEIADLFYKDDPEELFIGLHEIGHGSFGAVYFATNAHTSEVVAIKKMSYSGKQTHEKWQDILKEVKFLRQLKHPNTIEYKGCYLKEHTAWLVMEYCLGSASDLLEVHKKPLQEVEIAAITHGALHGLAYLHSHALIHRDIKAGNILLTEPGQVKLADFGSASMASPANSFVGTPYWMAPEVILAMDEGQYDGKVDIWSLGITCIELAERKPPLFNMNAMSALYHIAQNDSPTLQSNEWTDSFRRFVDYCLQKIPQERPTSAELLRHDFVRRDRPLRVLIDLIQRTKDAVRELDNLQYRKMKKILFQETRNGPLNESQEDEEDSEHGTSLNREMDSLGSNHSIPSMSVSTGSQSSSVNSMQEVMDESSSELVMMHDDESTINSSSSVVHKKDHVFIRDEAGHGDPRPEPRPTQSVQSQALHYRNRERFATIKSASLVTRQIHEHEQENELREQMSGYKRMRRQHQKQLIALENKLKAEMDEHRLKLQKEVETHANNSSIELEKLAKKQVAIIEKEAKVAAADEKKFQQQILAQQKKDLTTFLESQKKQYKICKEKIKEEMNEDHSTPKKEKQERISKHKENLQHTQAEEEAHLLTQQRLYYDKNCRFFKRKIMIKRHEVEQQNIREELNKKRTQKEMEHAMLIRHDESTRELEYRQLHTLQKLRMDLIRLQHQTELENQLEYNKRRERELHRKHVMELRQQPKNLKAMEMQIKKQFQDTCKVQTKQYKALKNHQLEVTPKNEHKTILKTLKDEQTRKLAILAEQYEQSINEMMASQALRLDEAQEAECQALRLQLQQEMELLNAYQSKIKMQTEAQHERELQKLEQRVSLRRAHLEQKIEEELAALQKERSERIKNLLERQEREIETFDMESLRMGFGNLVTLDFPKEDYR
Sequence of Serine/threonine-protein kinase Nek7 (Homo sapiens) (Q8TDX7 whole entry, looked up): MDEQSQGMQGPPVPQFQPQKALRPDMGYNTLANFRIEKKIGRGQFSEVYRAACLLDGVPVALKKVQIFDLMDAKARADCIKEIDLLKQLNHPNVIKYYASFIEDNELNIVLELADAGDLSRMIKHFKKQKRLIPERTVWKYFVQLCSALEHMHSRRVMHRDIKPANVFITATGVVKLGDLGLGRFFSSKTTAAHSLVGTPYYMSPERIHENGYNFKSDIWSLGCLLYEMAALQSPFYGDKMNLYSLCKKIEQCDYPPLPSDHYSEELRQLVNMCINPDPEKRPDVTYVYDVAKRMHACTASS
Sequence of Alpha-2C adrenergic receptor (P18825 whole entry): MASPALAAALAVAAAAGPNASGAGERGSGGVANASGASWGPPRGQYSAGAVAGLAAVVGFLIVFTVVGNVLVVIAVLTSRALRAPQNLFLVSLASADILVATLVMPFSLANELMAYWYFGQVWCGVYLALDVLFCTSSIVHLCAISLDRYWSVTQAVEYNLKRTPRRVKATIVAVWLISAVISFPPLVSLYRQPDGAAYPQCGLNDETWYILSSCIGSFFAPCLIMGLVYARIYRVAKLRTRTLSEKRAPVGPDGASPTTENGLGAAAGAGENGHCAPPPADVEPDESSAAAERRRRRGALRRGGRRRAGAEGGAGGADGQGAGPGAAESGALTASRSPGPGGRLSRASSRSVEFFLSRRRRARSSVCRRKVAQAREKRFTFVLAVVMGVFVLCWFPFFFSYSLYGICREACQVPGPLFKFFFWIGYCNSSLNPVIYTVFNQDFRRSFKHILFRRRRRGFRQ
Sequence of TGF-beta receptor type-2 (Homo sapiens) (P37173 whole entry): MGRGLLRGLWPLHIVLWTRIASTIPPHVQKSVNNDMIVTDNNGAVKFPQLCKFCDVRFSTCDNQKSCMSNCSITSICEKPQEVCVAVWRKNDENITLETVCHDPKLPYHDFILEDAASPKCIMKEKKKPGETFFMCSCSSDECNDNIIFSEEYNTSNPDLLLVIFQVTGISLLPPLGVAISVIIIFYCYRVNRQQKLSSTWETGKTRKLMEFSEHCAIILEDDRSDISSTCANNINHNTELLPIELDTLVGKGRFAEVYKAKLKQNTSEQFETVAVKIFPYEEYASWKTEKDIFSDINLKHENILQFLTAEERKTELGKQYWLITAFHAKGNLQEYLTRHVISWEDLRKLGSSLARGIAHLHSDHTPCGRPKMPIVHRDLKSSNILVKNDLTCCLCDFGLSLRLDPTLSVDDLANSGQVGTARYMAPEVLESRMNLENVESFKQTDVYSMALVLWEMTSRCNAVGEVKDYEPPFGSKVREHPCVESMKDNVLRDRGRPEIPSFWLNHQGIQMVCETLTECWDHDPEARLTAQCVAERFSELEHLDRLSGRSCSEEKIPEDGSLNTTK
Sequence of Phosphatidylinositol 5-phosphate 4-kinase type-2 beta (Homo sapiens) (P78356 whole entry): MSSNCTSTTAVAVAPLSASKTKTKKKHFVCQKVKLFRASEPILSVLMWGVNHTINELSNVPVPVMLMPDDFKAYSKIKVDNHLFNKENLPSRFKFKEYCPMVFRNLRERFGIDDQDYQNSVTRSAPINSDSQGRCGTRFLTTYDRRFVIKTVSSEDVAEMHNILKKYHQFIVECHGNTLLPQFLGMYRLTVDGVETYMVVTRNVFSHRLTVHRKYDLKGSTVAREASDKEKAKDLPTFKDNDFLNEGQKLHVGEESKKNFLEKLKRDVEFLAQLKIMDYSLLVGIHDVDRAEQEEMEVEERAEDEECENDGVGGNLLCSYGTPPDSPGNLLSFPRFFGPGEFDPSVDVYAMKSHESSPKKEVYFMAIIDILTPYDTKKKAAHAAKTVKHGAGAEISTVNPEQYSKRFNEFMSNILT

In the case of `CC(C)(C)OC(=O)N1CCCC1CNC1CCC(c2cc(F)ccc2F)(S(=O)(=O)c2ccc(Cl)cc2)CC1` (stereo not given) [GSI-NC], the values for the Ki in [1] and in [2] were 516 nM and 653 nM, respectively.
As to `O=S(=O)(NC1CCC(c2cc(F)ccc2F)(S(=O)(=O)c2ccc(Cl)cc2)CC1)C(F)(F)F` (stereo not given) [MRK-560], in [3], the IC50 was < 0.5 nM (active). In addition, the residual activity was 100% in [4]; 95% in [5]; 100% in [6]; 92% in [7]; 100% in experiment [8]; 100% in [9]. Further, the residual activity in experiment [10] is 100%; in experiment [11], 100%; in [12], 87%; in experiment [13] it was 100%; in experiment [14] it was 100%; in experiment [15], 93%. Moreover, the residual activity in [16] was 82%; in [17], 0%; in experiment [18] it was 88%; in [19] it was 100%; in [20], 93%; in experiment [21], 100%. The residual activity in [22] is 91%; in [23], 100%; in [24], 100%; in [25], 100%; in experiment [26] it was 100%; in experiment [27] it was 100%. The residual activity in [28] is 82%; in experiment [29], 100%; in experiment [30], 100%; in experiment [31] it was 91%; in experiment [32] it was 100%; in [33], 100%. For the same molecule, the residual activity in experiment [34] was 68%; in [35], 98%; in experiment [36] it was 83%; in [37], 90%; in experiment [38], 100%; in experiment [39], 100%. The residual activity in experiment [40] was 85%; in experiment [41], 95%; in experiment [42] it was 99%; in experiment [43], 100%; in experiment [44], 100%; in experiment [45], 100%.

Usually Ki stands for the dissociation constant of the complex between target and ligand, obtained from inhibition or displacement. Usually IC50 stands for the midpoint of a concentration-inhibition curve.
